Patent publication US8952024B2, “Herbicidal pyrimidone derivatives” (E I du Pont de Nemours and Company, priority 2009, dated 2015)

Key:
Type in all cases: in vivo
[1] = tested on: wheat (Triticum aestivum); test: Test B pre-/postemergence plant response; settings: for Plant response rating, Wheat: Postemergence, scale 0 to 100 (0 no effect, 100 complete control)
Excerpt: (§1) Seeds of plant species selected from blackgrass (Alopecurus myosuroides), downy bromegrass (Bromus tectorum), green foxtail (Setaria viridis), Italian ryegrass (Lolium multiflorum), wheat (Triticum aestivum), wild oat (Avena fatua), deadnettle (henbit deadnettle, Lamium amplexicaule), galium (catchweed bedstraw, Galium aparine), bermudagrass (Cynodon dactylon), Surinam grass (Brachiaria decumbens), cocklebur (Xanthium strumarium), corn (Zea mays), large crabgrass (Digitaria sanguinalis), woolly cupgrass (Eriochloa villosa), giant foxtail (Setaria faberii), goosegrass (Eleusine indica), johnsongrass (Sorghum halepense), kochia (Kochia scoparia), lambsquarters (Chenopodium album), morningglory (Ipomoea coccinea), nightshade (eastern black nightshade, Solanum ptycanthum), yellow nutsedge (Cyperus esculentus), pigweed (Amaranthus retroflexus), ragweed (common ragweed, Ambrosia elatior), Russian thistle (Salsola kali), soybean (Glycine max), sunflower (common oilseed sunflower, Helianthus annuus) and velvetleaf (Abutilon theophrasti) were planted into a blend of loam soil and sand and treated preemergence with test compounds formulated in a non-phytotoxic solvent mixture which included a surfactant.
(§2) At the same time, plants selected from these crop and weed species and also winter barley (Hordeum vulgare), canarygrass (Phalaris minor), chickweed (Stellaria media) and windgrass (Apera spica-venti) were planted in pots containing Redi-Earth® planting medium (Scotts Company, 14111 Scottslawn Road, Marysville, Ohio 43041) comprising spaghnum peat moss, vermiculite, wetting agent and starter nutrients and treated with postemergence applications of some of the test chemicals formulated in the same manner. Plants ranged in height from 2 to 18 cm (1- to 4-leaf stage) for postemergence treatments.
(§3) Treated plants and controls were maintained in a greenhouse for 13 to 15 days, after which time all treated plants were visually evaluated and compared to controls. Plant response ratings, summarized in Table B, are based on a scale of 0 to 100 where 0 is no effect and 100 is complete control. A dash (-) response means no test result.

[2] = tested on: cocklebur (Xanthium strumarium); test: Test B pre-/postemergence plant response
Excerpt: as §1, §2, §3

[3] = tested on: bermudagrass (Cynodon dactylon); test: Test B pre-/postemergence plant response
Excerpt: as §1, §2, §3

[4] = tested on: pigweed (Amaranthus retroflexus); test: Test A pre-/postemergence plant response
Method in brief: (§4)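 Formulated test chemicals (non-phytotoxic solvent, surfactant) were sprayed onto soil right after planting and simultaneously onto young plants at one to two leaves, 2 to 10 cm tall. Plants stayed in the greenhouse about ten days; injury was then visually scored against untreated controls, from 0 (no effect) to 100 (complete control).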

[5] = tested on: wheat (Triticum aestivum); test: Test A pre-/postemergence plant response
Method in brief: as §4

[6] = tested on: giant foxtail (Setaria faberii); test: Test A pre-/postemergence plant response
Method in brief: as §4

[7] = tested on: corn (Zea mays); test: Test A pre-/postemergence plant response
Method in brief: as §4

[8] = tested on: large crabgrass (Digitaria sanguinalis); test: Test A pre-/postemergence plant response
Method in brief: as §4

[9] = tested on: velvetleaf (Abutilon theophrasti); test: Test A pre-/postemergence plant response
Method in brief: as §4

[10] = tested on: morningglory (Ipomoea spp.); test: Test A pre-/postemergence plant response
Method in brief: as §4

[11] = tested on: barnyardgrass (Echinochloa crus-galli); test: Test A pre-/postemergence plant response
Method in brief: as §4

[12] = 62 g ai/ha, postemergence, 0 is no effect, 100 is complete control, 13 to 15 days
[13] = 31 g ai/ha, postemergence, scale 0 to 100, 0 is no effect, 100 is complete control
[14] = Postemergence, 125 g ai/ha, scale 0 to 100 (0 no effect, 100 complete control)
[15] = Postemergence, 250 g ai/ha, scale 0 to 100 (0 no effect, 100 complete control)
[16] = Postemergence, 125 g ai/ha, 0 to 100 scale where 0 is no effect and 100 is complete control
[17] = Postemergence, 500 g ai/ha, 0 to 100 scale, 0 = no effect, 100 = complete control, approx. ten days
[18] = Preemergence, 125 g ai/ha, 0 to 100 scale, 0 = no effect, 100 = complete control
[19] = Preemergence, 500 g ai/ha, visual injury, 0 to 100 scale (0 no effect, 100 complete control), approx. ten days

Structure (SMILES): O=C1CCCC(O)=C1C(=O)c1cnc(-c2ccsc2)n(CC2CCCO2)c1=O (stereo not shown) [Compound 98]
- Wheat plant response rating (0 to 100 scale) [1, 12]: 5
- Plant response rating, Wheat ([1]; 125 g ai/ha): 5
- Plant response rating, Wheat ([1]; 250 g ai/ha): 20
- Plant response rating, Cocklebur [2, 13]: 98
- Cocklebur plant response rating (0 to 100 scale) [2, 12]: 100
- Plant response rating, Cocklebur [2, 14]: 100
- Plant response rating, Cocklebur [2, 15]: 100
- Plant response rating, Bermudagrass [3, 13]: 75
- Bermudagrass plant response rating (0 to 100 scale) [3, 12]: 80
- Plant response rating, Bermudagrass [3, 14]: 85
- Plant response rating, Bermudagrass [3, 15]: 98
- Plant response rating, Pigweed [4, 16]: 100
- Plant response rating, Pigweed [4, 17]: 100
- Plant response rating, Pigweed [4, 18]: 100
- Plant response rating, Pigweed [4, 19]: 100
- Plant response rating, Wheat [5, 16]: 0
- Plant response rating, Wheat [5, 17]: 20
- Plant response rating, Wheat [5, 18]: 0
- Plant response rating, Wheat [5, 19]: 0
- Plant response rating, Foxtail, Giant [6, 16]: 70
- Plant response rating, Foxtail, Giant [6, 17]: 90
- Plant response rating, Foxtail, Giant [6, 18]: 40
- Plant response rating, Foxtail, Giant [6, 19]: 80
- Plant response rating, Corn [7, 16]: 0
- Plant response rating, Corn [7, 17]: 60
- Plant response rating, Corn [7, 18]: 0
- Plant response rating, Corn [7, 19]: 0
- Plant response rating, Crabgrass, Large [8, 16]: 90
- Plant response rating, Crabgrass, Large [8, 17]: 100
- Plant response rating, Crabgrass, Large [8, 18]: 90
- Plant response rating, Crabgrass, Large [8, 19]: 100
- Plant response rating, Velvetleaf [9, 16]: 100
- Plant response rating, Velvetleaf [9, 17]: 100
- Plant response rating, Velvetleaf [9, 18]: 90
- Plant response rating, Velvetleaf [9, 19]: 100
- Plant response rating, Morningglory [10, 16]: 100
- Plant response rating, Morningglory [10, 17]: 100
- Plant response rating, Morningglory [10, 18]: 70
- Plant response rating, Morningglory [10, 19]: 80
- Plant response rating, Barnyardgrass [11, 16]: 80
- Plant response rating, Barnyardgrass [11, 17]: 90
- Plant response rating, Barnyardgrass [11, 18]: 0
- Plant response rating, Barnyardgrass [11, 19]: 60
